From ChEMBL document CHEMBL1126282, “Synthesis and conformational properties of the lanthionine-bridged opioid peptide [D-AlaL2,AlaL5]enkephalin as determined by NMR and computer simulations” (J Med Chem, 1992) come the findings set out here.

One may read the IC50 as the concentration that gives 50% inhibition. By ED50 is commonly meant the midpoint of the dose-response relation. Lower therefore signals greater potency.

Experiment [1] concerns Cavia porcellus. Briefly: Concentration inhibiting electrically induced contraction of guinea pig ileum(GPI) at an ED50 of 0.15(ug/kg). The format is functional, organism-based.
Experiment [2] is filed under the species Cavia porcellus. Briefly: Potency to inhibit electrically induced contraction of guinea pig ileum(GPI) relative to [Leu5]-enkephalin. Type of experiment: functional.
The subject of experiment [3] is Mus musculus. Briefly: Concentration inhibiting electrically induced contraction of mouse vas deferens(MVD) at an ED50 of 0.15(ug/kg). Type of experiment: functional, organism-based.
For experiment [4], the species on record is Mus musculus. Briefly: Potency to inhibit electrically induced contraction of mouse vas deferens(MVD) relative to [Leu5]-enkephalin. Type of experiment: functional.
The test system of the next experiment is Rattus norvegicus. Briefly: Effective dose was measured using in vivo rat hot plate test after intrathecal injection. Type of experiment: functional. The conditions noted are these: central. A general note: Thermal pain tests record how soon the animal reacts.
A short description of experiment [5]: Selectivity Ratio of IC50 of MVD to IC50 of GPI. The format is functional.
The species named for experiment [6] is Cavia porcellus. Briefly: Concentration inhibiting electrically induced contraction of guinea pig ileum(GPI). The format is functional, organism-based.

On to `NC(=O)[C@@H]1CSC[C@@H](NC(=O)[C@@H](N)Cc2ccc(O)cc2)C(=O)NCC(=O)N[C@@H](Cc2ccccc2)C(=O)N1`, for which the half-maximal inhibitory concentration (IC50) with Cavia porcellus [1] turned out to be 0.62 nM; in the experiment on Mus musculus [3], 0.54 nM. The values for the Relative potency in the experiment listed under Cavia porcellus [2] and in the experiment filed under Mus musculus [4] were 396 and 21, respectively. The compound also had an ED50 with Rattus norvegicus of 0.15 µg/kg. Besides, in experiment [5], the Ratio worked out at 0.882.

Regarding `NC(=O)[C@@H]1CSSC[C@@H](NC(=O)[C@@H](N)Cc2ccc(O)cc2)C(=O)NCC(=O)N[C@@H](Cc2ccccc2)C(=O)N1` [listing 1 of 2 here], the Relative potency is listed as 132 in the experiment filed under Cavia porcellus [2] and 17 in the experiment filed under Mus musculus [4].

Consider `NC(=O)[C@H]1CSSC[C@H](NC(=O)[C@@H](N)Cc2ccc(O)cc2)C(=O)NCC(=O)N[C@H](Cc2ccccc2)C(=O)N1`, for which the Ratio in experiment [5] amounted to 0.503.

Turning to `NC(=O)[C@@H]1CSSC[C@@H](NC(=O)[C@@H](N)Cc2ccc(O)cc2)C(=O)NCC(=O)N[C@@H](Cc2ccccc2)C(=O)N1` [listing 2 of 2 here], the IC50 in the experiment listed under Cavia porcellus [6] was 1.51 nM. In other words, the single-digit nanomolar range.

In the case of `CN1CC[C@]23c4c5ccc(O)c4O[C@H]2[C@@H](O)C=C[C@H]3[C@H]1C5` [MORPHINE], the ED50 with Rattus norvegicus was 5.6 µg/kg.

As for `CC(C)C[C@H](NC(=O)[C@H](Cc1ccccc1)NC(=O)CNC(=O)CNC(=O)[C@@H](N)Cc1ccc(O)cc1)C(=O)O` [ENKEPHALIN], the ED50 in the experiment on Rattus norvegicus is greater than 100 µg/kg.
